According to patent US8252935B2, “Piperidinyl and piperazinyl modulators of γ-secretase” (Janssen Pharmaceutica N.V., priority 2007, dated 2012):

Target: γ-secretase (Homo sapiens, UniProt P49768)
Test: Screening for γ-secretase-modulating activity in SKNBE2 cells carrying APP 695 wild type (assay of Citron et al 1997)
Type: cell-based
Details: SKNBE2, @ 1 uM; SKNBE2 cells carrying the APP 695 wild type
Description: Screening was carried out using SKNBE2 cells carrying the APP 695—wild type, grown in DMEM/NUT-mix F12 (HAM) provided by Gibco (cat no. 31330-38) containing 5% Serum/Fe supplemented with 1% non-essential amino acids. Cells were grown to near confluency. The screening was performed using the assay as described in Citron et al (1997) Nature Medicine 3: 67.

inhibition at 1 µM [%]	SMILES
0	CC(C)CCN1C(c2cc(-c3ccc(C(F)(F)F)cc3)cc(C(F)(CC(C)C)C(=O)O)c2)CCCC1C(F)(F)F (stereo not shown) [Example 16, 2-Fluoro-4-methyl-2-{5-[1-(3-methyl-butyl)-6-trifluoromethyl-piperidin-2-yl]-4′-trifluoromethyl-biphenyl-3-yl}-pentanoic acid]
44	Cc1ccccc1CC1CCCCN1c1cc(-c2ccc(C(F)(F)F)cc2)cc(C(CC(C)C)C(=O)O)c1 (stereo not shown) [Example 83, 4-Methyl-2-{5-[2-(2-methyl-benzyl)-piperidin-1-yl]-4′-trifluoromethyl-biphenyl-3-yl}-pentanoic acid]
58	CC(C)CC(C(=O)O)c1cc(-c2ccc(C(F)(F)F)cc2)cc(C2CCCN(Cc3cc(C(C)(C)C)cc(C(C)(C)C)c3)C2)c1 (stereo not shown) [Example 52, 2-{5-[1-(3,5-Di-tert-butyl-benzyl)-piperidin-3-yl]-4′-trifluoromethyl-biphenyl-3-yl}-4-methyl-pentanoic acid]
40	CC(C)C[C@H](C(=O)O)c1cc(-c2ccc(C(F)(F)F)cc2)cc([C@H]2CC[C@@H](C(F)(F)F)NC2)c1 (single isomer, unassigned) [Example 36, 4-Methyl-2-[4′-trifluoromethyl-5-(6-trifluoromethyl-piperidin-3-yl)-biphenyl-3-yl]-pentanoic acid]
30	CC(C)CC(C(=O)O)c1cc(-c2ccc(C(F)(F)F)cc2)cc(C2CCC(C(F)(F)F)CN2)c1 (stereo not shown) [Example 23, 4-Methyl-2-[4′-trifluoromethyl-5-(5-trifluoromethyl-piperidin-2-yl)-biphenyl-3-yl]-pentanoic acid]
17	CC(C)CC(C(=O)O)c1cc(-c2ccc(C(F)(F)F)cc2)cc(C2CCCN(Cc3ccc4nnn(C)c4c3)C2)c1 (stereo not shown) [Example 50, 4-Methyl-2-{5-[1-(3-methyl-3H-benzotriazol-5-ylmethyl)-piperidin-3-yl]-4′-trifluoromethyl-biphenyl-3-yl}-pentanoic acid]
57	CC(C)CC(C(=O)O)c1cc(-c2ccc(C(F)(F)F)cc2)cc(C2CCCN(Cc3cc(C(F)(F)F)cc(C(F)(F)F)c3)C2)c1 (stereo not shown) [Example 53, 2-{5-[1-(3,5-Bis-trifluoromethyl-benzyl)-piperidin-3-yl]-4′-trifluoromethyl-biphenyl-3-yl}-4-methyl-pentanoic acid]
63	CC(C)CC(C(=O)O)c1cc(-c2ccc(C(F)(F)F)cc2)cc(C2CCCN(S(=O)(=O)c3ccccc3C(F)(F)F)C2)c1 (stereo not shown) [Example 42, 4-Methyl-2-{4′-trifluoromethyl-5-[1-(2-trifluoromethyl-benzenesulfonyl)-piperidin-3-yl]-biphenyl-3-yl}-pentanoic acid]
35	CC(C)CC(C(=O)O)c1cc(-c2ccc(C(F)(F)F)cc2)cc(C2CCN(Cc3ccc(C(F)(F)F)cc3)CC2)c1 (stereo not shown) [Example 78, 4-Methyl-2-{4′-trifluoromethyl-5-[1-(4-trifluoromethyl-benzyl)-piperidin-4-yl]-biphenyl-3-yl}-pentanoic acid]
4	CC(C)CC(C(=O)O)c1cc(-c2ccc(C(F)(F)F)cc2)cc(C2CCN(C3CCCCC3)CC2)c1 (stereo not shown) [Example 74, 2-[5-(1-Cyclohexyl-piperidin-4-yl)-4′-trifluoromethyl-biphenyl-3-yl]-4-methyl-pentanoic acid]
8	CC(C)C[C@@H](C(=O)O)c1cc(-c2ccc(C(F)(F)F)cc2)cc([C@@H]2CC[C@H](C(F)(F)F)NC2)c1 (relative stereo) [Example 35, 4-Methyl-2-[4′-trifluoromethyl-5-(6-trifluoromethyl-piperidin-3-yl)-biphenyl-3-yl]-pentanoic acid]
2	CC(C)CC(C(=O)O)c1cc(-c2ccc(C(F)(F)F)cc2)cc(C2CCNCC2)c1 (stereo not shown) [Example 68, 4-Methyl-2-(5-piperidin-4-yl-4′-trifluoromethyl-biphenyl-3-yl)-pentanoic acid]
48	CC(C)C[C@H](C(=O)O)c1cc(-c2ccc(C(F)(F)F)cc2)cc([C@H]2CCC[C@@H](C(F)(F)F)N2)c1 [Example 19, (S) 4-Methyl-2-[4′-trifluoromethyl-5-(6-trifluoromethyl-piperidin-2-yl)-biphenyl-3-yl]-pentanoic acid]
5	CC(C)CCN1CCCC(c2cc(-c3ccc(C(F)(F)F)cc3)cc(C(CC(C)C)C(=O)O)c2)C1 (stereo not shown) [Example 62, 4-Methyl-2-{5-[1-(3-methyl-butyl)-piperidin-3-yl]-4′-trifluoromethyl-biphenyl-3-yl}-pentanoic acid]
37	CC(C)CC(C(=O)O)c1cc(-c2ccc(C(F)(F)F)cc2)cc(C2CCCN(c3ccc(C(F)(F)F)cc3)C2)c1 (stereo not shown) [Example 59, 4-Methyl-2-{4′-trifluoromethyl-5-[1-(4-trifluoromethyl-phenyl)-piperidin-3-yl]-biphenyl-3-yl}-pentanoic acid]
44	CC(C)CC(C(=O)O)c1cc(-c2ccc(C(F)(F)F)cc2)cc(C2CCCN(C(C)c3ccc(C(F)(F)F)cc3)C2)c1 (single isomer, unassigned) [Example 63, (S*)-4-Methyl-2-(4′-trifluoromethyl-5-{1-[1-(4-trifluoromethyl-phenyl)-ethyl]-piperidin-3-yl}-biphenyl-3-yl)-pentanoic acid]
0	CC(C)CC(C(=O)O)c1cc(-c2ccc(C(F)(F)F)cc2)cc(C2CCCC(C)N2)c1 (stereo not shown) [Example 6, 4-Methyl-2-[5-(6-methyl-piperidin-2-yl)-4′-trifluoromethyl-biphenyl-3-yl]-pentanoic acid]
9	CC(C)CC(C(=O)O)c1cc(-c2ccc(C(F)(F)F)cc2)cc(C2CC[N+](C)(C)CC2)c1 (stereo not shown) [Example 73, 2-[5-(1,1-Dimethyl-piperidin-4-yl)-4′-trifluoromethyl-biphenyl-3-yl]-4-methyl-pentanoic acid]
40	CC(C)CC(C(=O)O)c1cc(-c2ccc(C(F)(F)F)cc2)cc(C2CCCN(c3ccccc3)C2)c1 (stereo not shown) [Example 58, 4-Methyl-2-[5-(1-phenyl-piperidin-3-yl)-4′-trifluoromethyl-biphenyl-3-yl]-pentanoic acid]
22	CCC(CC)N1CCCC(c2cc(-c3ccc(C(F)(F)F)cc3)cc(C(CC(C)C)C(=O)O)c2)C1 (stereo not shown) [Example 33, 2-{5-[1-(1-Ethyl-propyl)-piperidin-3-yl]-4′-trifluoromethyl-biphenyl-3-yl}-4-methyl-pentanoic acid]
75	CC(C)CCC(c1ccc(C(F)(F)F)cc1)N1CCCC(c2cc(-c3ccc(C(F)(F)F)cc3)cc(C(CC(C)C)C(=O)O)c2)C1 (single isomer, unassigned) [Example 56, (R*) 4-Methyl-2-(5-{1-[4-methyl-1-(4-trifluoromethyl-phenyl)-pentyl]-piperidin-3-yl}-4′-trifluoromethyl-biphenyl-3-yl)-pentanoic acid]
61	CC(C)CC(C(=O)O)c1cc(-c2ccc(C(F)(F)F)cc2)cc(C2CCCN(Cc3ccc(OC(F)(F)F)cc3)C2)c1 (stereo not shown) [Example 47, 4-Methyl-2-{5-[1-(4-trifluoromethoxy-benzyl)-piperidin-3-yl]-4′-trifluoromethyl-biphenyl-3-yl}-pentanoic acid]
5	CC(C)CC(C(=O)O)c1cc(-c2ccc(C(F)(F)F)cc2)cc(N2CCNCC2)c1 (stereo not shown) [Example 82, 4-Methyl-2-(5-piperazin-1-yl-4′-trifluoromethyl-biphenyl-3-yl)-pentanoic acid]
35	CC(C)CC(C(=O)O)c1cc(-c2ccc(C(F)(F)F)cc2)cc(N2CCN(c3cccc(C(F)(F)F)c3)CC2)c1 (stereo not shown) [Example 80, 4-Methyl-2-{4′-trifluoromethyl-5-[4-(3-trifluoromethyl-phenyl)-piperazin-1-yl]-biphenyl-3-yl}-pentanoic acid]
46	CC(C)CC(C(=O)O)c1cc(-c2ccc(C(F)(F)F)cc2)cc(C2CCCN(Cc3ccc(-n4cccc4)cc3)C2)c1 (stereo not shown) [Example 44, 4-Methyl-2-{5-[1-(4-pyrrol-1-yl-benzyl)-piperidin-3-yl]-4′-trifluoromethyl-biphenyl-3-yl}-pentanoic acid]
